In series [1] the target is Voltage-gated inwardly rectifying potassium channel KCNH2 (Homo sapiens, UniProt Q12809). The experiment in a line: (§1) Inhibition of human ERG expressed in CHO cells by whole cell patch clamp technique. As to conditions: for pIC50: human.
In series [2] the target is hERG (KCNH2) (Homo sapiens, UniProt Q12809). The description is as §1. As to conditions: human.
Where [3] appears, read: CHO cells that express human ERG.

The record followed here is ChEMBL document CHEMBL1150324, “Support vector machines classification of hERG liabilities based on atom types” (Bioorg Med Chem, 2008).

Voltage-gated inwardly rectifying potassium channel KCNH2, sequence (Q12809 whole entry): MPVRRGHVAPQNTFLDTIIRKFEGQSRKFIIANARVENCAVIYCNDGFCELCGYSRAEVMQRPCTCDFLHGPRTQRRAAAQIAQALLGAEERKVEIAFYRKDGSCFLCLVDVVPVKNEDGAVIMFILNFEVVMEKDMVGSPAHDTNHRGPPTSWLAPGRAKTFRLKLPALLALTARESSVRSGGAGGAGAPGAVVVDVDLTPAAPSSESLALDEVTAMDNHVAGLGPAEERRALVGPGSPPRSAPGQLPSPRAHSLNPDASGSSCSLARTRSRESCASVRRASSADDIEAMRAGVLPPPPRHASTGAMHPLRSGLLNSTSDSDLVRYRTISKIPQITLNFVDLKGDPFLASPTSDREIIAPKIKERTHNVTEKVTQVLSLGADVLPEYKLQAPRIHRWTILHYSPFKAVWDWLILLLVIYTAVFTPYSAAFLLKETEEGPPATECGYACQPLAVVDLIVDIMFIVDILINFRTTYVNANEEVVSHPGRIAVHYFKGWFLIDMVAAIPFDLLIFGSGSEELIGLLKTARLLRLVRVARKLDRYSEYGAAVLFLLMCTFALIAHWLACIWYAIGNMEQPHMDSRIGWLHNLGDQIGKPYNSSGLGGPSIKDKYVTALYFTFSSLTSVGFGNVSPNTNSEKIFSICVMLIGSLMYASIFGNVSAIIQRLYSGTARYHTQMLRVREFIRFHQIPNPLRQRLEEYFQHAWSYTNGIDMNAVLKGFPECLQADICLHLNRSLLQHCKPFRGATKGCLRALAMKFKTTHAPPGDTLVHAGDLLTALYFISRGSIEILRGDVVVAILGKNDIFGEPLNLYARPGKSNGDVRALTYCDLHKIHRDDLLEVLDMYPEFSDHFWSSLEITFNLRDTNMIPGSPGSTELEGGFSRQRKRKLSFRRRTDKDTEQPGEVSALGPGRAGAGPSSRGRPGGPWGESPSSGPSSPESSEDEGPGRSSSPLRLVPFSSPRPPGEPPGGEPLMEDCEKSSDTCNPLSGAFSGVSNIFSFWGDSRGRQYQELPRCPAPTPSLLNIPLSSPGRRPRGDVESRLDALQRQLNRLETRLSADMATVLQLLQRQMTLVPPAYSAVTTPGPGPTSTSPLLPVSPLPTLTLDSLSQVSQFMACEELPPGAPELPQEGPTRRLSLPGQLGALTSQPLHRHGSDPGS
hERG (KCNH2), sequence (Q12809 whole entry): as above

As for `CN(c1nccc(=O)[nH]1)C1CCN(c2nc3ccccc3n2Cc2ccc(F)cc2)CC1` [MIZOLASTINE], in series [1] (cho), the pIC50 is 6.36. The compound `COc1c(N2CCNC(C)C2)c(F)cc2c(=O)c(C(=O)O)cn(C3CC3)c12` (configuration not stated) [GATIFLOXACIN] gave an IC50 in series [1] of 129 µM. In turn, `CCOC(=O)C1=C(C)NC(C)=C(C(=O)OC)C1c1cccc([N+](=O)[O-])c1` (configuration not stated) [NITRENDIPINE] gave an IC50 in series [2] (setting [3]) of 10 µM.

Compound `CN1CCC[C@H]1c1cccnc1` [NICOTINE] came in with a pIC50 in series [1] (cho) of 3.61. In series [1] (setting [3]), `COc1ccc(C(=O)N2CCN(c3ccc4c(c3)CCC(=O)N4)CC2)cc1OC` [VESNARINONE] showed a negative logarithm of the IC50 (pIC50) of 5.96. Same read-out and setting: to `C[C@@H]1CN(c2c(F)c(N)c3c(=O)c(C(=O)O)cn(C4CC4)c3c2F)C[C@H](C)N1` [SPARFLOXACIN] belongs 4.74.

Compound `O=C(OC1CC2CC3CC(C1)N2CC3O)c1c[nH]c2ccccc12` (configuration not stated) [MDL-74156] had an IC50 in series [1] of 5.89 µM. For `Cc1cc2c(s1)Nc1ccccc1N=C2N1CCN(C)CC1` [OLANZAPINE], in series [1] (cho), the pIC50 stood at 6.74. Compound `Oc1ccc(CCN2CCC(Nc3nc4ccccc4n3Cc3ccc(F)cc3)CC2)cc1` [DESMETHEYLASTEMIZOLE] gave an IC50 in series [1] of 0.001 µM. As for `COc1ccc(C2CCN(CC[C@H]3CCOc4ccccc43)CC2)cc1OC`, the pIC50 in series [1] (cho) turned out to be 6.7. On to `CC[C@H]1OC(=O)[C@H](C)[C@@H](O[C@H]2C[C@@](C)(OC)[C@@H](O)[C@H](C)O2)[C@H](C)[C@@H](O[C@@H]2O[C@H](C)C[C@H](N(C)C)[C@H]2O)[C@](C)(OC)C[C@@H](C)C(=O)[C@H](C)[C@@H](O)[C@]1(C)O` [CLARITHROMYCIN], for which the pIC50 in series [1] (cho) was found to be 4.23. In series [2] (cho), `COc1ccc(C2CCN(CC[C@H]3CCOc4ccccc43)CC2)cc1OC` [TERIKALANT] had a half-maximal inhibitory concentration (IC50) of 0.251 µM.
